Consider two compounds from US10449157B2, “Process for producing microcapsules comprising an active component encapsulated, protected and stabilised within a protein shell” (Anabio Technologies Limited, priority 2013, dated 2019).

For data set [1] the following is noted: product literature; cited from earlier work.
Data set [2] can be described thus: Stability trials of free and encapsulated Creatine in water (HPLC).
Data set [3] can be described thus: Electrophoretic mobility (zeta potential). In kind it is physicochemical.

Turning to `CN(CC(=O)O)C(=N)N.O` [CREAPURE, Creatine Monohydrate], the “long term stability in water” value in data set [1] is given as “no long term stability”.
In the case of `CN(CC(=O)O)C(=N)N.O` [commercial Creatine monohydrate, Creatine monohydrate], in data set [2] (15 min incubation in water at room temperature), the “Creatine concentration reduced by” value worked out at 66%. In data set [2] (in water at 25° C.), the “first-order degradation rate constant” value turned out to be 0.0263 per day. In addition, the zeta potential in data set [3] is listed as −2.4 mV.
